“And” between values parts separate entries of the source, which are not always exact repeats. Equal values may be shown once. Where a name gives a salt, the structure may show the parent alone. Read-outs that look alike come from different tables or passages of the source.
Experiments:
S. aureus [1] = assay: Test A MIC/MBC study; format: cell-based; conditions: Staphylococcus aureus; for MBC: killing of ≥99.9% of the organisms; for MIC: tryptic soy broth, 37° C. overnight
Protocol: (§1) MIC/MBC studies were conducted according to a modified literature procedure (LaDow JE, et al. European Journal of Medicinal Chemistry. 46 (2011) 4219-4226). In brief, stock amphiphile solutions were made in 1 mL double-distilled water (0.1M C8 and C10; 0.02M C12), filter sterilized, and sonicated for five minutes. Stocks were then diluted 100× in tryptic soy broth and vortexed. This broth was serially diluted in fresh broth and 100 μL “doped” broth was transferred to 96-well microtiter plate. 10^6 Cfu/mL inoculums were prepared for E. coli and S. aureus. 100 μL inoculum was added to the wells. Plates were put on a shaker for 5 minutes to mix inoculum and broth. Plates were incubated at 37° C. overnight. Wells were visually analyzed the next day by growth or no growth. After MICs were determined, aliquots were taken from each well, plated, and incubated to determine the MBC values for each compound. MBC values were defined as killing of ≥99.9% of the organisms, which corresponds to a 3-log reduction.

E. coli = assay: Test A MIC/MBC study; format: cell-based; conditions: for MBC: killing of ≥99.9% of the organisms; for MIC: tryptic soy broth, 37° C. overnight
Protocol: as §1

[2] = test system: Staphylococcus aureus Rosenbach ATCC 29213; assay: Broth microdilution assay
[3] = test system: Pseudomonas aeruginosa ATCC 14213; assay: Broth microdilution assay
[4] = test system: Listeria monocytogenes ATCC 49594; assay: Broth microdilution assay
[5] = test system: Escherichia coli ATCC 43895; assay: Broth microdilution assay
L. pneumophilia = assay: CLSI/NCCLS broth microdilution assay; format: cell-based; conditions: 18 hours
Y. pseudotuberculosis = format: cell-based; conditions: 18 hours
P. aeruginosa = assay: CLSI/NCCLS broth microdilution assay; format: cell-based; conditions: 18 hours
B. neotomae = assay: CLSI/NCCLS broth microdilution assay; format: cell-based; conditions: 18 hours
B. cereus = assay: CLSI/NCCLS broth microdilution assay; format: cell-based
B. cepacia = assay: CLSI/NCCLS broth microdilution assay; format: cell-based; conditions: 18 hours
S. aureus [6] = format: cell-based
S. epidermidis = assay: CLSI/NCCLS broth microdilution assay; format: cell-based
A. baumannii = assay: CLSI/NCCLS broth microdilution assay; format: cell-based; conditions: 18 hours
K. pneumoniae = assay: CLSI/NCCLS broth microdilution assay; format: cell-based; conditions: 18 hours
E. faecium = assay: CLSI/NCCLS broth microdilution assay; format: cell-based
[7] = Escherichia coli, read-out: MIC
[8] = Staphylococcus aureus, ATCC29213, 24 h
[9] = Pseudomonas aeruginosa, ATCC14213, 24 h
[10] = Listeria monocytogenes, ATCC49594, 24 h
[11] = Escherichia coli, ATCC43895, 24 h
[12] = S. aureus (G+), TSB, 37° C., 24 h
[13] = P. aeruginosa (G−), TSB, 37° C., 24 h
[14] = L. monocytogenes (G+), TSB, 37° C., 24 h
[15] = E. coli (G−), TSB, 37° C., 24 h

With `[H]/N=C(/N)N[C@H]1[C@H](O)[C@@H](O)[C@H](O[C@@H]2O[C@@H](C)[C@](O)(C=O)[C@H]2O[C@@H]2O[C@@H](CO)[C@H](O)[C@@H](O)[C@@H]2NC)[C@@H](N/C(N)=N\[H])[C@@H]1O` [Streptomycin Sulfate, reference compound] the MBC (S. aureus [1]) was less than 100 µg/mL, the MIC (S. aureus [1]) was less than 100 µg/mL and the MBC (E. coli; Escherichia coli) was less than 100 µg/mL. For the same compound, the MIC (E. coli; [7]) was less than 100 µg/mL and the MIC (E. coli) was <100 (<100) μg/mL.

`CCCCCCCCCCCCCCCC[N+](C)(C)C` [CTAB, Cetyltrimethylammonium bromide, reference compound] was tested, and the MIC [2, 8] was 4 µM, the MIC [3, 9] was 16 µM and the MIC [4, 10] was 8 µM. For the same compound, the MIC [5, 11] was 32 µM.

With `CCCCCCCCCCC(=O)OC(C(=O)NCCN)C(OC(=O)CCCCCCCCCC)C(=O)NCCN.Cl.Cl` (stereo not shown) [Amphiphile G9] the MIC (L. pneumophilia) was 25 µg/mL, the MIC [2, 12] was 500 µM and the MIC (Y. pseudotuberculosis) was 6.25 µg/mL. For the same compound, the MIC (P. aeruginosa) was greater than 50 µg/mL, the MIC [3, 13] was 250 µM and the MIC (B. neotomae) was 3.125 µg/mL. For the same compound, the MIC (B. cereus) was 6.25 µg/mL, the MIC [4, 14] was 250 µM and the MIC (B. cepacia) was greater than 50 µg/mL. The MIC (S. aureus [6]) was 6.25 µg/mL, the MIC (S. epidermidis) was 6.25 µg/mL and the MIC (A. baumannii) was greater than 50 µg/mL. The MIC (K. pneumoniae) was greater than 50 µg/mL, the MIC (E. faecium) was 6.25 µg/mL and the “Vero Cell Cytotoxicity” value (Vero Cell) was 50 µg/mL. The MIC [5, 15] was 125 µM.

`CCCNC(=O)[C@H](OC(=O)CCCCCCCCCN)[C@@H](OC(=O)CCCCCCCCCN)C(=O)NCCC.Cl.Cl` [Amphiphile B9] gave an MIC [2, 12] of 125 µM, an MIC [3, 13] of 250 µM and an MIC [4, 14] of 125 µM. The MBC (S. aureus [1]) was 250 µM and 171 µg/mL, the MIC (S. aureus [1]) was 125 µM and 80.5 µg/mL and the MBC (E. coli; Escherichia coli) was 500 µM and 322 µg/mL. For the same compound, the MIC (E. coli; [7]) was 500 µM and 322 µg/mL and the MIC [5, 15] was 500 µM.

With `CCCCCCCCCCCCOS(=O)(=O)[O-].[Na+]` [SDS, Sodium dodecyl sulfate, reference compound] the MIC [2, 8] was 1000 µM, the MIC [3, 9] was greater than 2000 µM and the MIC [4, 10] was 2000 µM. For the same compound, the MIC [5, 11] was greater than 2000 µM.

With `CCCCCCCCC(=O)OC(C(=O)NCCN)C(OC(=O)CCCCCCCC)C(=O)NCCN.Cl.Cl` (stereo not shown) [Amphiphile G7] the MIC [2, 12] was 63 μM and 62.5* μM, the MIC (Y. pseudotuberculosis) was 12.5 µg/mL and the MIC (P. aeruginosa) was 25 µg/mL. The MIC [3, 13] was 125 µM, the MIC (B. neotomae) was 3.125 µg/mL and the MIC (B. cereus; B. cereus, 18 hours) was 6.25 µg/mL. The MIC [4, 14] was 63 μM and 62.5* μM, the MIC (B. cepacia) was greater than 50 µg/mL and the MIC (S. epidermidis) was 12.5 µg/mL. The MIC (A. baumannii) was greater than 50 µg/mL, the MIC (K. pneumoniae) was 50 µg/mL and the MIC (E. faecium; E. faecium, 18 hours) was 6.25 µg/mL. The “Vero Cell Cytotoxicity” value (Vero Cell) was greater than 50 µg/mL and the MIC [5, 15] was 63 µM.

`CCCNC(=O)[C@H](OC(=O)CCCCCCCN)[C@@H](OC(=O)CCCCCCCN)C(=O)NCCC.Cl.Cl` [Amphiphile B7] showed an MIC [2, 12] of 500 µM, an MIC [3, 13] of 1000 µM and an MIC [4, 14] of 500 µM. The MBC (S. aureus [1]) was 500 µM and 294 µg/mL, the MIC (S. aureus [1]) was 500 µM and 294 µg/mL and the MBC (E. coli; Escherichia coli) was 1000 µM and 588 µg/mL. For the same compound, the MIC (E. coli; [7]) was 1000 µM and 588 µg/mL and the MIC [5, 15] was 1000 µM.

`CCCNC(=O)[C@H](OC(=O)CCCCCCCCCCCN)[C@@H](OC(=O)CCCCCCCCCCCN)C(=O)NCCC.Cl.Cl` [Amphiphile B11] gave an MIC (L. pneumophilia) greater than 50 µg/mL, an MIC [2, 12] of 25 µM and an MIC (Y. pseudotuberculosis) greater than 50 µg/mL. For the same compound, the MIC (P. aeruginosa) was greater than 50 µg/mL, the MIC [3, 13] was 50 µM and the MIC (B. neotomae) was 25 µg/mL. For the same compound, the MIC (B. cereus; B. cereus, 18 hours) was 50 µg/mL, the MIC [4, 14] was 12.5 µM and the MIC (B. cepacia) was greater than 50 µg/mL. The MIC (S. aureus [6]; S. aureus, 18 hours) was 25 µg/mL, the MIC (S. epidermidis; S. epidermidis, 18 hours) was 25 µg/mL and the MIC (A. baumannii) was greater than 50 µg/mL. The MIC (K. pneumoniae) was greater than 50 µg/mL, the MIC (E. faecium; E. faecium, 18 hours) was 25 µg/mL and the MBC (S. aureus [1]) was 50 µM and 35 µg/mL. The MIC (S. aureus [1]) was 25 µM and 17.5 µg/mL, the MBC (E. coli; Escherichia coli) was 400 µM and 280 µg/mL and the MIC (E. coli; [7]) was 400 µM and 280 µg/mL. For the same compound, the “Vero Cell Cytotoxicity” value (Vero Cell) was 50 µg/mL and the MIC [5, 15] was 100 µM.
